Data reported in the OligoGym collection.
HELM strings list units from the 5' end as sugar, base in round brackets, then linkage (d deoxyribose, r ribose, m 2'-O-methyl, p phosphodiester). Strings are as the collection lists them; they lack the last nucleoside at the 3' end of the tested compound. [moe] = 2'-O-(2-methoxyethyl) (MOE); [sp] = phosphorothioate linkage; [m5C] = 5-methylcytosine

Biological target: PRNP
Experiment: mouse, dose not given
Details: ASO

Row | Substance | 3 h FOB score [score 0-7]
1 | RNA1{[moe](G)[sp].[moe]([m5C])p.[moe](T)p.[moe](T)p.[moe](T)[sp].d(G)[sp].d(G)[sp].d(A)[sp].d(T)[sp].d([m5C])[sp].d(T)[sp].d([m5C])[sp].d(T)[sp].d(T)[sp].d(A)[sp].[moe](G)p.[moe](A)p.[moe](T)[sp].[moe](T)}$$$$ (last 3' nucleoside missing) | 0
2 | RNA1{[moe]([m5C])[sp].[moe](A)p.[moe](A)p.[moe](T)p.[moe](T)[sp].d(G)[sp].d(T)[sp].d(T)[sp].d(T)[sp].d(T)[sp].d(T)[sp].d([m5C])[sp].d(T)[sp].d([m5C])[sp].d(T)[sp].[moe]([m5C])p.[moe](T)p.[moe]([m5C])[sp].[moe](T)}$$$$ (last 3' nucleoside missing) | 0
3 | RNA1{[moe](T)[sp].[moe](G)p.[moe]([m5C])p.[moe]([m5C])p.[moe](A)[sp].d([m5C])[sp].d(A)[sp].d(T)[sp].d(A)[sp].d(T)[sp].d(A)[sp].d(G)[sp].d(G)[sp].d(G)[sp].d(T)[sp].[moe]([m5C])p.[moe]([m5C])p.[moe](T)[sp].[moe](T)}$$$$ (last 3' nucleoside missing) | 3
4 | RNA1{[moe](A)[sp].[moe](A)p.[moe](A)p.[moe]([m5C])p.[moe](G)[sp].d(T)[sp].d([m5C])[sp].d([m5C])[sp].d(A)[sp].d(T)[sp].d(T)[sp].d(T)[sp].d(T)[sp].d([m5C])[sp].d(T)[sp].[moe](G)p.[moe](T)p.[moe](G)[sp].[moe]([m5C])}$$$$ (last 3' nucleoside missing) | 0
5 | RNA1{[moe](T)[sp].[moe](G)p.[moe](T)p.[moe](G)p.[moe]([m5C])[sp].d(T)[sp].d(T)[sp].d(T)[sp].d(T)[sp].d([m5C])[sp].d([m5C])[sp].d(T)[sp].d(T)[sp].d(T)[sp].d([m5C])[sp].[moe](A)p.[moe](G)p.[moe](A)[sp].[moe](T)}$$$$ (last 3' nucleoside missing) | 0.75
6 | RNA1{[moe]([m5C])[sp].[moe](T)p.[moe](A)p.[moe](G)p.[moe](T)[sp].d(A)[sp].d(A)[sp].d(G)[sp].d(A)[sp].d(A)[sp].d([m5C])[sp].d(T)[sp].d(T)[sp].d(A)[sp].d(T)[sp].[moe]([m5C])p.[moe]([m5C])p.[moe]([m5C])[sp].[moe](A)}$$$$ (last 3' nucleoside missing) | 0
7 | RNA1{[moe](G)[sp].[moe](T)p.[moe](T)p.[moe](A)p.[moe](G)[sp].d([m5C])[sp].d(T)[sp].d(T)[sp].d(T)[sp].d(T)[sp].d(T)[sp].d(T)[sp].d(T)[sp].d([m5C])[sp].d(A)[sp].[moe]([m5C])p.[moe](T)p.[moe](G)[sp].[moe](T)}$$$$ (last 3' nucleoside missing) | 0.5
8 | RNA1{[moe](T)[sp].[moe](A)p.[moe](G)p.[moe](G)p.[moe]([m5C])[sp].d(T)[sp].d([m5C])[sp].d(T)[sp].d(T)[sp].d(T)[sp].d(T)[sp].d([m5C])[sp].d([m5C])[sp].d(A)[sp].d(G)[sp].[moe](G)p.[moe](T)p.[moe](G)[sp].[moe](T)}$$$$ (last 3' nucleoside missing) | 1
9 | RNA1{[moe](T)[sp].[moe]([m5C])p.[moe](T)p.[moe]([m5C])p.[moe]([m5C])[sp].d(T)[sp].d(T)[sp].d(G)[sp].d(A)[sp].d(A)[sp].d(T)[sp].d(T)[sp].d(T)[sp].d([m5C])[sp].d(T)[sp].[moe](T)p.[moe](T)p.[moe]([m5C])[sp].[moe](A)}$$$$ (last 3' nucleoside missing) | 0
10 | RNA1{[moe](T)[sp].[moe](T)p.[moe]([m5C])p.[moe](A)p.[moe](G)[sp].d(A)[sp].d(T)[sp].d(T)[sp].d(T)[sp].d(T)[sp].d(T)[sp].d([m5C])[sp].d(A)[sp].d([m5C])[sp].d(A)[sp].[moe](T)p.[moe](A)p.[moe](T)[sp].[moe](G)}$$$$ (last 3' nucleoside missing) | 1
11 | RNA1{[moe](A)[sp].[moe]([m5C])p.[moe](T)p.[moe](T)p.d(G)[sp].d(T)[sp].d([m5C])[sp].d(A)[sp].d(G)[sp].d(T)[sp].d(T)[sp].d(T)[sp].d(T)[sp].d(T)[sp].[moe]([m5C])p.[moe]([m5C])p.[moe]([m5C])p.[moe]([m5C])[sp].[moe](A)}$$$$ (last 3' nucleoside missing) | 2.5
12 | RNA1{[moe](G)[sp].[moe](G)p.[moe](T)p.[moe](T)p.[moe](A)p.[moe]([m5C])p.d(A)[sp].d(T)[sp].d(A)[sp].d(A)[sp].d(T)[sp].d(G)[sp].d(T)[sp].d(T)[sp].d([m5C])[sp].d(A)[sp].[moe](T)p.[moe](T)[sp].[moe](T)}$$$$ (last 3' nucleoside missing) | 3.75
13 | RNA1{[moe]([m5C])[sp].[moe](T)p.[moe]([m5C])p.[moe](T)p.[moe](A)p.d(T)[sp].d(G)[sp].d(T)[sp].d(T)[sp].d(T)[sp].d(T)[sp].d([m5C])[sp].d([m5C])[sp].d(A)[sp].[moe](G)[sp].[moe](T)p.[moe](G)p.[moe]([m5C])}$$$$ (last 3' nucleoside missing) | 1
14 | RNA1{[moe](T)[sp].[moe](G)p.[moe](G)p.[moe](A)p.[moe](A)[sp].d(G)[sp].d(A)[sp].d([m5C])[sp].d(T)[sp].d(T)[sp].d(G)[sp].d(T)[sp].d(G)[sp].d(T)[sp].d(T)[sp].[moe](A)p.[moe](G)p.[moe](A)[sp].[moe](T)}$$$$ (last 3' nucleoside missing) | 6.5
15 | RNA1{[moe](T)[sp].[moe]([m5C])p.[moe](G)p.[moe]([m5C])p.[moe]([m5C])[sp].d(A)[sp].d(T)[sp].d(A)[sp].d(A)[sp].d(T)[sp].d(G)[sp].d(A)[sp].d([m5C])[sp].d(T)[sp].d(G)[sp].[moe]([m5C])p.[moe](T)p.[moe]([m5C])[sp].[moe](T)}$$$$ (last 3' nucleoside missing) | 4.5
16 | RNA1{[moe](T)[sp].[moe](G)p.[moe](T)p.[moe]([m5C])p.[moe](A)p.[moe](G)p.d(T)[sp].d(T)[sp].d(T)[sp].d(T)[sp].d(T)[sp].d([m5C])[sp].d([m5C])[sp].d([m5C])[sp].d([m5C])[sp].d(A)[sp].[moe]([m5C])p.[moe](A)[sp].[moe](T)}$$$$ (last 3' nucleoside missing) | 0.5
17 | RNA1{[moe]([m5C])[sp].[moe](T)p.[moe](T)p.[moe](A)p.[moe](A)[sp].d(T)[sp].d(T)[sp].d(A)[sp].d(G)[sp].d(T)[sp].d(T)[sp].d(A)[sp].d([m5C])[sp].d(A)[sp].d(T)[sp].[moe]([m5C])p.[moe](G)p.[moe](G)[sp].[moe](G)}$$$$ (last 3' nucleoside missing) | 4.5
18 | RNA1{[moe]([m5C])[sp].[moe]([m5C])p.[moe](A)p.[moe]([m5C])p.[moe](A)[sp].d(T)[sp].d(A)[sp].d(T)[sp].d(A)[sp].d(G)[sp].d(G)[sp].d(G)[sp].d(T)[sp].d([m5C])[sp].d([m5C])[sp].[moe](T)p.[moe](T)p.[moe](T)[sp].[moe](A)}$$$$ (last 3' nucleoside missing) | 1.5
